# Measurements from ChEMBL document CHEMBL3045900, “Synthesis and antitubercular activity of nucleoside analogs based on L-ascorbic acid and bases” (2008).
# How the values were obtained:
# [1] = system: Mycobacterium tuberculosis; assay: Antitubercular activity against Mycobacterium tuberculosis H37Rv after 30 days by agar microdilution method; type: functional
# [2] = system: Mycobacterium tuberculosis; assay: Antitubercular activity against Mycobacterium tuberculosis H37Ra after 5 days by micro Alamar blue essay; type: functional; details: 120 h
Structure (SMILES),MIC [1] [µg/mL],MIC [2] [µg/mL]
COC1=C(OC)C(O)(CCn2ccnc2)N(Cc2ccccc2)C1=O (centres undefined),> 25,> 12.5
COC1=C(OC)C(=CCn2cnc3ccccc32)OC1=O,> 25,> 12.5
COC1=C(OC)/C(=C/Cn2ccnc2)OC1=O,> 25,> 12.5
COC1=C(OC)/C(=C/Cn2cnc3c(N)ncnc32)OC1=O,> 25,> 12.5
NNC(=O)c1ccncc1 [ISONIAZID],0.65,–
